These results are taken from ChEMBL document CHEMBL1155915, “Anticonvulsant activity of some xanthone derivatives” (Bioorg Med Chem, 2008).

The source made the active and inactive calls. The calls are words filed in the database; no cut-off is given here.

The subject of data set [1] is Mus musculus. As to the kind of experiment: Anticonvulsant activity against maximal electroshock-induced seizures in mouse at 300 mg/kg, ip after 0.5 hrs. It is filed as functional, organism-based. Details: dose 300 mg/kg.
Data set [2] has as its system Mus musculus. As to the kind of experiment: Anticonvulsant activity against maximal electroshock-induced seizures in mouse at 100 mg/kg, ip after 4 hrs. Details: dose 100 mg/kg. It is filed as functional, organism-based.
Data set [3] has as its system Mus musculus. As to the kind of experiment: Anticonvulsant activity against maximal electroshock-induced seizures in mouse at 30 mg/kg, ip after 4 hrs. Details: dose 30 mg/kg. It is filed as functional, organism-based.
Data set [4] deals with Mus musculus. As to the kind of experiment: Anticonvulsant activity against maximal electroshock-induced seizures in mouse at 300 mg/kg, ip after 4 hrs. It is filed as functional, organism-based. Details: dose 300 mg/kg.
In data set [5] the test system is Mus musculus. As to the kind of experiment: Anticonvulsant activity against scMet-induced seizures in mouse at 300 mg/kg, ip after 4 hrs. Set-up: dose 300 mg/kg. It is filed as functional, organism-based.
In data set [6] the test system is Mus musculus. As to the kind of experiment: Anticonvulsant activity against scMet-induced seizures in mouse at 100 mg/kg, ip after 4 hrs. It is filed as functional, organism-based. Details: dose 100 mg/kg.
The subject of data set [7] is Mus musculus. As to the kind of experiment: Anticonvulsant activity against scMet-induced seizures in mouse at 100 mg/kg, ip after 0.5 hrs. Set-up: dose 100 mg/kg. It is filed as functional, organism-based.
The test system of data set [8] is Mus musculus. The data set can be described thus: Anticonvulsant activity against scMet-induced seizures in mouse at 30 mg/kg, ip after 4 hrs. It is filed as functional, organism-based. Set-up: dose 30 mg/kg.
Data set [9] concerns Mus musculus. As to the kind of experiment: Neurotoxicity in mouse at 30 mg/kg, ip after 0.5 hrs by rotarod test. It is filed as toxicity, organism-based. Details: dose 30 mg/kg, route intraperitoneal. As to conditions: in vivo.
Data set [10] concerns Mus musculus. As to the kind of experiment: Neurotoxicity in mouse at 30 mg/kg, ip after 4 hrs by rotarod test. It is filed as toxicity, organism-based. Set-up: dose 30 mg/kg, route intraperitoneal. As to conditions: in vivo.
Data set [11] relates to Mus musculus. As to the kind of experiment: Anticonvulsant activity against scMet-induced seizures in mouse at 300 mg/kg, ip after 0.5 hrs. It is filed as functional, organism-based. Details: dose 300 mg/kg.
Data set [12] has as its system Mus musculus. The data set can be described thus: Anticonvulsant activity against maximal electroshock-induced seizures in mouse at 30 mg/kg, ip after 0.5 hrs. It is filed as functional, organism-based. Set-up: dose 30 mg/kg.
In data set [13] the test system is Mus musculus. The data set can be described thus: Anticonvulsant activity against scMet-induced seizures in mouse at 30 mg/kg, ip after 0.5 hrs. It is filed as functional, organism-based. Set-up: dose 30 mg/kg.
Data set [14] relates to Mus musculus. As to the kind of experiment: Neurotoxicity in mouse at 300 mg/kg, ip after 0.5 hrs by rotarod test. It is filed as toxicity, organism-based. Set-up: dose 300 mg/kg, route intraperitoneal. As to conditions: in vivo.
For data set [15], the system named is Mus musculus. As to the kind of experiment: Neurotoxicity in mouse at 100 mg/kg, ip after 0.5 hrs by rotarod test. It is filed as toxicity, organism-based. Set-up: dose 100 mg/kg, route intraperitoneal. The following applies: in vivo.
Data set [16] has as its system Mus musculus. As to the kind of experiment: Neurotoxicity in mouse at 300 mg/kg, ip after 4 hrs by rotarod test. It is filed as toxicity, organism-based. Details: dose 300 mg/kg, route intraperitoneal. The following applies: in vivo.
Data set [17] concerns Mus musculus. The data set can be described thus: Neurotoxicity in mouse at 100 mg/kg, ip after 4 hrs by rotarod test. As to conditions: in vivo. It is filed as toxicity, organism-based. Details: dose 100 mg/kg, route intraperitoneal.
In data set [18] the test system is Mus musculus. As to the kind of experiment: Anticonvulsant activity against maximal electroshock-induced seizures in mouse at 100 mg/kg, ip after 0.5 hrs. Details: dose 100 mg/kg. It is filed as functional, organism-based.

Take `CC[C@H](CO)NCc1ccc2oc3cc(Cl)ccc3c(=O)c2c1`: the result in the data set with Mus musculus [1] and in the data set with Mus musculus [4] was Active. The outcome in the data set with Mus musculus [2], with Mus musculus [3], with Mus musculus [5], in the data set with Mus musculus [6], in the data set on Mus musculus [7] and with Mus musculus [8] was inactive. The outcome in the data set with Mus musculus [11], with Mus musculus [12] and in the data set on Mus musculus [13] was inactive. The figures for the Neurotoxicity entry with Mus musculus [9], in the data set with Mus musculus [10] and in the data set on Mus musculus [14] were “Not Active”, “Not Active” and “Neurotoxic”, respectively.
For `O=C(N[C@@H]1CCCC[C@H]1O)c1ccc2oc3ccccc3c(=O)c2c1` (racemic), the Neurotoxicity result in the data set on Mus musculus [15], with Mus musculus [16], in the data set with Mus musculus [17], in the data set on Mus musculus [9] and in the data set with Mus musculus [10] was “Not Active” in each case. Besides, the outcome with Mus musculus [1], in the data set with Mus musculus [3], with Mus musculus [4], in the data set with Mus musculus [5], with Mus musculus [6] and with Mus musculus [7] was inactive. In addition, the outcome in the data set on Mus musculus [8], with Mus musculus [18], with Mus musculus [11], in the data set on Mus musculus [12] and in the data set on Mus musculus [13] was inactive.
As to `CC(CCl)N(C)Cc1ccc2oc3cc(Cl)ccc3c(=O)c2c1.Cl` (centres undefined), the outcome in the data set with Mus musculus [1] was Active. Further, the Neurotoxicity result was “Neurotoxic” with Mus musculus [16], “Not Active” in the data set on Mus musculus [9], “Not Active” in the data set with Mus musculus [10] and “Neurotoxic” with Mus musculus [14]. In addition, the result with Mus musculus [2], in the data set on Mus musculus [3], with Mus musculus [4], in the data set on Mus musculus [5], in the data set on Mus musculus [6] and with Mus musculus [7] was inactive. The result in the data set on Mus musculus [8], in the data set with Mus musculus [11], in the data set on Mus musculus [12] and in the data set with Mus musculus [13] was inactive.
As for `CCOC(=O)CNC(=O)c1ccc2oc3ccccc3c(=O)c2c1`, the Neurotoxicity entry in the data set with Mus musculus [15], with Mus musculus [16], in the data set on Mus musculus [17], in the data set with Mus musculus [9], in the data set on Mus musculus [10] and with Mus musculus [14] was “Not Active” each time. The result with Mus musculus [1], in the data set on Mus musculus [2], in the data set with Mus musculus [3], in the data set on Mus musculus [4], with Mus musculus [5] and with Mus musculus [6] was inactive. Also, the result in the data set with Mus musculus [7], in the data set on Mus musculus [8], in the data set on Mus musculus [18], in the data set on Mus musculus [11], with Mus musculus [12] and with Mus musculus [13] was inactive.
On to `CN(CCO)Cc1ccc2oc3cc(Cl)ccc3c(=O)c2c1`, for which the result in the data set with Mus musculus [1], in the data set with Mus musculus [2], in the data set on Mus musculus [3], in the data set on Mus musculus [5], in the data set on Mus musculus [6] and with Mus musculus [7] was inactive. Also, the outcome in the data set on Mus musculus [8], in the data set with Mus musculus [11], with Mus musculus [12] and in the data set on Mus musculus [13] was inactive. Moreover, the Neurotoxicity entry in the data set with Mus musculus [16] is given as “Neurotoxic”; with Mus musculus [17], “Not Active”; in the data set with Mus musculus [9], “Not Active”; in the data set with Mus musculus [10] it was “Not Active”; with Mus musculus [14] it was “Neurotoxic”.
Consider `NC(=O)CNC(=O)c1ccc2oc3ccccc3c(=O)c2c1`, for which the Neurotoxicity result in the data set with Mus musculus [15], in the data set on Mus musculus [16], in the data set with Mus musculus [17], in the data set with Mus musculus [9], in the data set with Mus musculus [10] and in the data set on Mus musculus [14] was “Not Active” in each case. The result in the data set with Mus musculus [1], with Mus musculus [2], in the data set with Mus musculus [3], in the data set with Mus musculus [4], in the data set with Mus musculus [5] and in the data set on Mus musculus [6] was inactive. The result in the data set on Mus musculus [7], with Mus musculus [8], in the data set with Mus musculus [18], with Mus musculus [11], in the data set on Mus musculus [12] and in the data set on Mus musculus [13] was inactive.
In the case of `CC(CO)NC(=O)c1ccc2oc3ccccc3c(=O)c2c1` (centres undefined), the Neurotoxicity entry in the data set with Mus musculus [15], in the data set on Mus musculus [16], in the data set with Mus musculus [17], in the data set with Mus musculus [9], in the data set on Mus musculus [10] and with Mus musculus [14] was “Not Active” throughout. Also, the outcome in the data set on Mus musculus [1], in the data set on Mus musculus [2], with Mus musculus [3], in the data set with Mus musculus [4], with Mus musculus [5] and in the data set with Mus musculus [6] was inactive. For the same molecule, the outcome with Mus musculus [7], in the data set on Mus musculus [8], with Mus musculus [18], with Mus musculus [11], in the data set with Mus musculus [12] and with Mus musculus [13] was inactive.
As to `O=C(NCCCCO)c1ccc2oc3ccccc3c(=O)c2c1`, the Neurotoxicity entry with Mus musculus [15], in the data set with Mus musculus [16], in the data set on Mus musculus [17], in the data set on Mus musculus [9], in the data set with Mus musculus [10] and in the data set on Mus musculus [14] was “Not Active” throughout. Further, the outcome in the data set with Mus musculus [1], in the data set with Mus musculus [2], with Mus musculus [3], with Mus musculus [4], in the data set on Mus musculus [5] and with Mus musculus [6] was inactive. The result in the data set with Mus musculus [7], in the data set on Mus musculus [8], in the data set with Mus musculus [18], in the data set on Mus musculus [11], in the data set on Mus musculus [12] and with Mus musculus [13] was inactive.
Regarding `CC(CO)NC(=O)c1ccc2oc3cc(Cl)ccc3c(=O)c2c1` (racemic), the Neurotoxicity result in the data set with Mus musculus [15], in the data set on Mus musculus [16], in the data set with Mus musculus [17], in the data set with Mus musculus [10] and with Mus musculus [14] was “Not Active” throughout. Moreover, the result in the data set with Mus musculus [1], in the data set on Mus musculus [2], in the data set on Mus musculus [3], in the data set with Mus musculus [4], in the data set with Mus musculus [5] and in the data set on Mus musculus [6] was inactive. Besides, the result in the data set on Mus musculus [7], in the data set on Mus musculus [8], in the data set on Mus musculus [18], in the data set on Mus musculus [11], with Mus musculus [12] and in the data set with Mus musculus [13] was inactive.
